The values below come from PubChem BioAssay (NCI).

The TGI is the concentration giving total growth inhibition. Low readings indicate more potent growth arrest, high ones less potent growth arrest.

Some test systems named below: MDA-MB-435; ACHN renal; SF-539 CNS; IGROV1 ovarian; MOLT-4 leukemia; NCI-H226 lung; HT29 colon; UO-31 renal; HCT-116 colon; U251 CNS; COLO 205 colon; SW-620 colon; HS 578T breast; T-47D breast; RPMI-8226 leukemia; NCI/ADR-RES ovarian.
Assay in all cases: DTP human tumour cell line panel, 48 h

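Where inhibition never reached the appropriate level, the endpoint shown equals the highest concentration tested. Otherwise, values were interpolated linearly from a five-concentration, 48-hour dose response in 96-well plates. At the TGI there is no net growth.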

For `CC1=N[C@](C)(C2CC3C=CC2C3=O)COC1=O` (some centres not stated), the TGI in the experiment with MDA-MB-435, in the experiment with ACHN renal, in the experiment with SF-539 CNS, in the experiment with IGROV1 ovarian, with MOLT-4 leukemia and with NCI-H226 lung was over 100 µM each time. Besides, the TGI with HT29 colon, in the experiment with UO-31 renal, in the experiment with HCT-116 colon, with U251 CNS, with COLO 205 colon and in the experiment on SW-620 colon was over 100 µM in each case. The TGI with HS 578T breast and with T-47D breast was over 100 µM each time.

As to `c1ccc(C2OCCO2)c(OCCOc2cc(OCCOc3ccccc3C3OCCO3)c(OCCOc3ccccc3C3OCCO3)cc2OCCOc2ccccc2C2OCCO2)c1`, the TGI is over 100 µM with ACHN renal; 32.7 µM in the experiment on SF-539 CNS; 28.6 µM in the experiment with IGROV1 ovarian; over 100 µM in the experiment on MOLT-4 leukemia; 47.3 µM with NCI-H226 lung; over 100 µM with HT29 colon. Besides, the TGI is 53.2 µM in the experiment with UO-31 renal; 44.2 µM in the experiment with HCT-116 colon; 23.9 µM in the experiment on U251 CNS; over 100 µM in the experiment on RPMI-8226 leukemia; over 100 µM with COLO 205 colon; over 100 µM with SW-620 colon.

In the case of `O=C(CNC(=O)OCc1ccccc1)NCCCCC(NC(=O)OCc1ccccc1)C(=O)NC(CCCCNC(=O)CNC(=O)OCc1ccccc1)C(=O)OCc1ccccc1` (configuration not stated), the TGI with MDA-MB-435, in the experiment with ACHN renal, in the experiment on IGROV1 ovarian, in the experiment with MOLT-4 leukemia, in the experiment on NCI-H226 lung and with HT29 colon was over 62.5 µM throughout. For the same molecule, the TGI in the experiment on UO-31 renal, in the experiment with HCT-116 colon, with U251 CNS, with RPMI-8226 leukemia, with SW-620 colon and in the experiment on T-47D breast was over 62.5 µM each time.

With `Cc1ccc2c(C)c3ccc4ccccc4c3c[n+]2c1`, the TGI with ACHN renal was over 100 µM; with SF-539 CNS, 33.7 µM; in the experiment on IGROV1 ovarian it was over 100 µM; in the experiment with MOLT-4 leukemia, 45.9 µM; with NCI-H226 lung, 25.4 µM; with HT29 colon it was over 100 µM. In addition, the TGI in the experiment on UO-31 renal is over 100 µM; in the experiment with HCT-116 colon it was over 89.7 µM; in the experiment with U251 CNS, 23 µM; in the experiment with RPMI-8226 leukemia it was 64.8 µM; in the experiment on COLO 205 colon, 27.2 µM; in the experiment on SW-620 colon, over 82.1 µM.

On to `CC(C)CC(NC(=O)C(CCI)Cc1ccccc1)C(=O)Nc1ccccc1` (configuration not stated), for which the TGI in the experiment with MDA-MB-435 is over 100 µM; with ACHN renal, over 100 µM; in the experiment on SF-539 CNS, over 100 µM; with IGROV1 ovarian, over 100 µM; in the experiment with MOLT-4 leukemia it was 83.6 µM; in the experiment with NCI-H226 lung, over 100 µM. Moreover, the TGI in the experiment on NCI/ADR-RES ovarian is over 100 µM; with UO-31 renal it was 84.7 µM; with HCT-116 colon, over 100 µM; in the experiment with U251 CNS, over 100 µM; in the experiment on RPMI-8226 leukemia, over 100 µM; in the experiment on COLO 205 colon, over 100 µM. This molecule also returned a TGI in the experiment with SW-620 colon of over 100 µM.

For `O=C(Cc1ccccc1)NNc1nc(NNC(=O)c2ccncc2)nc(Nc2cccc(Cl)c2)n1`, the TGI in the experiment on SF-539 CNS, in the experiment with IGROV1 ovarian, in the experiment with MOLT-4 leukemia, with HT29 colon, in the experiment with NCI/ADR-RES ovarian and in the experiment on U251 CNS was over 10 µM in each case. The TGI in the experiment with RPMI-8226 leukemia, in the experiment with COLO 205 colon, in the experiment with SW-620 colon, with HS 578T breast and in the experiment with T-47D breast was over 10 µM each time.

Take `COc1cc(Oc2nc3c(N)cc(C(F)(F)F)cc3nc2-c2ccccc2)cc(OC)c1OC`: the TGI in the experiment with ACHN renal is 32.5 µM; with SF-539 CNS it was 14.3 µM; with IGROV1 ovarian, over 24.3 µM; in the experiment on MOLT-4 leukemia, over 100 µM; in the experiment on NCI-H226 lung, over 78.2 µM; in the experiment with HT29 colon, 5.31 µM. Also, the TGI in the experiment with NCI/ADR-RES ovarian is over 26.1 µM; with UO-31 renal, over 100 µM; with HCT-116 colon, over 45.3 µM; in the experiment with U251 CNS it was over 45.7 µM; in the experiment on RPMI-8226 leukemia, over 100 µM; in the experiment with COLO 205 colon, over 80.7 µM. Further, the TGI is over 26.2 µM with SW-620 colon, over 53.8 µM with HS 578T breast and over 100 µM in the experiment with T-47D breast.

In the case of `CCOc1ncn(-c2ccc(NC(=S)NC34CC5CC(CC(C5)C3)C4)cc2)n1`, the TGI in the experiment with MDA-MB-435, with SF-539 CNS, with IGROV1 ovarian, with MOLT-4 leukemia, with HT29 colon and in the experiment on UO-31 renal was over 100 µM in each case. In addition, the TGI in the experiment on HCT-116 colon, in the experiment on RPMI-8226 leukemia, in the experiment with COLO 205 colon, in the experiment on SW-620 colon and in the experiment on T-47D breast was over 100 µM in each case.

Turning to `Cc1ccc(S(=O)(=O)Nn2c(S)c(C#N)c(-c3ccc([N+](=O)[O-])cc3)c(C#N)c2=O)cc1`, the TGI with MDA-MB-435 was 53.9 µM; with ACHN renal, over 100 µM; in the experiment with SF-539 CNS it was 35.4 µM; in the experiment with IGROV1 ovarian, 51 µM; with MOLT-4 leukemia, 47.7 µM; with NCI-H226 lung it was over 100 µM. The TGI in the experiment on HT29 colon was over 100 µM; in the experiment with NCI/ADR-RES ovarian, over 100 µM; in the experiment with HCT-116 colon, 32.8 µM; in the experiment with U251 CNS it was 98 µM; in the experiment on RPMI-8226 leukemia, 37.8 µM; in the experiment with COLO 205 colon, 98.3 µM. The results for the TGI in the experiment on SW-620 colon and in the experiment with HS 578T breast were 35.1 µM and 86.5 µM, respectively.

On to `CCOC(=O)Nc1nn(C)c(=NCc2ccccc2)s1`, for which the TGI in the experiment on MDA-MB-435, in the experiment on ACHN renal, in the experiment on SF-539 CNS, with IGROV1 ovarian, in the experiment on MOLT-4 leukemia and with UO-31 renal was over 100 µM each time. The TGI in the experiment with HCT-116 colon, in the experiment on U251 CNS, with RPMI-8226 leukemia, with COLO 205 colon, in the experiment with SW-620 colon and in the experiment on HS 578T breast was over 100 µM throughout. For the same molecule, the TGI in the experiment with T-47D breast is over 100 µM.

As for `O=C1NC(=O)C(COCc2ccccc2)C2=C1SCCC2` (configuration not stated), the TGI in the experiment with MDA-MB-435, in the experiment with ACHN renal, with SF-539 CNS, with IGROV1 ovarian, in the experiment with MOLT-4 leukemia and in the experiment on NCI-H226 lung was over 100 µM throughout. Also, the TGI with HT29 colon, in the experiment on NCI/ADR-RES ovarian, in the experiment with UO-31 renal, in the experiment on HCT-116 colon, with U251 CNS and in the experiment on RPMI-8226 leukemia was over 100 µM each time. Further, the TGI in the experiment on COLO 205 colon, in the experiment with SW-620 colon and with HS 578T breast was over 100 µM in each case.

Turning to `O=C1CC(C(=O)N2CCCCC2)n2c(=O)n(-c3ccccc3)c(=O)n2C1` (configuration not stated), the TGI in the experiment with ACHN renal, in the experiment with SF-539 CNS, in the experiment on IGROV1 ovarian, in the experiment with NCI-H226 lung, in the experiment on HT29 colon and in the experiment on NCI/ADR-RES ovarian was over 100 µM each time. The TGI in the experiment with UO-31 renal, with HCT-116 colon, in the experiment on COLO 205 colon and in the experiment with HS 578T breast was over 100 µM throughout.

For `CCSc1nc(=[N+]2CCCC2)ss1`, the TGI in the experiment on MDA-MB-435 is 42.5 µM; with ACHN renal it was over 100 µM; with SF-539 CNS it was over 85.6 µM; with IGROV1 ovarian it was over 90 µM; in the experiment with MOLT-4 leukemia, 30 µM; in the experiment with NCI-H226 lung it was over 91.3 µM. Also, the TGI with HT29 colon was over 92.1 µM; in the experiment on NCI/ADR-RES ovarian, over 100 µM; with UO-31 renal it was over 100 µM; in the experiment on HCT-116 colon it was over 86.9 µM; in the experiment with U251 CNS it was over 100 µM; with RPMI-8226 leukemia, 22.8 µM. Besides, the TGI in the experiment with COLO 205 colon is over 49.3 µM; in the experiment on SW-620 colon, over 100 µM; with HS 578T breast, over 100 µM.

Turning to `O=C1CCCCC/C1=C\c1ccc(Cl)cc1`, the TGI in the experiment on MDA-MB-435 is 58.2 µM; with ACHN renal it was over 100 µM; in the experiment with IGROV1 ovarian, over 100 µM; with MOLT-4 leukemia, 95.1 µM; in the experiment on NCI-H226 lung, over 100 µM; in the experiment on HT29 colon it was 54.5 µM. Besides, the TGI in the experiment with UO-31 renal is over 100 µM; in the experiment with HCT-116 colon it was over 100 µM; in the experiment with U251 CNS it was over 100 µM; in the experiment with RPMI-8226 leukemia, 82.2 µM; in the experiment on COLO 205 colon it was 40.8 µM; in the experiment on SW-620 colon, 61.2 µM. For the same molecule, the TGI in the experiment with HS 578T breast is 57.8 µM; with T-47D breast, over 100 µM.

For `CCN(CC)C(=S)N=Nc1c(O)[nH]c2ccccc12`, the TGI with MDA-MB-435 was found to be 18.8 µM; with ACHN renal, 10.1 µM; in the experiment on SF-539 CNS it was 2.4 µM; in the experiment on IGROV1 ovarian, 2.42 µM; in the experiment with MOLT-4 leukemia, 2.93 µM; in the experiment with NCI-H226 lung, 8.2 µM. Moreover, the TGI in the experiment on HT29 colon came out at 14.8 µM; with NCI/ADR-RES ovarian, 0.759 µM; in the experiment on HCT-116 colon it was 2.84 µM; in the experiment on U251 CNS it was 13 µM; in the experiment on RPMI-8226 leukemia, 4.07 µM; with COLO 205 colon, 11.6 µM. The TGI turned out to be 19.7 µM with SW-620 colon and 69.5 µM in the experiment on HS 578T breast.

Take `COc1ccc(-c2cc(=O)c3cc4c(cc3[nH]2)OCO4)cc1`: the TGI with ACHN renal, with SF-539 CNS, in the experiment on IGROV1 ovarian, with MOLT-4 leukemia, in the experiment with NCI-H226 lung and with HT29 colon was over 100 µM throughout. Further, the TGI in the experiment on UO-31 renal, in the experiment with HCT-116 colon, in the experiment on U251 CNS, in the experiment with RPMI-8226 leukemia, in the experiment on COLO 205 colon and in the experiment on SW-620 colon was over 100 µM each time.
